One series concerns the target T1, CB1R (Mus musculus, UniProt P47746).
T1 construct: crude membranes from mouse brain; from tissue; host or cells: mouse brain cortex (without cerebellum) membranes, C57Bl/6Jhsd mice
As to the kind of experiment: [35S]GTPγS binding - CB1R activity, mouse brain membranes. In kind it is biochemical. The settings on record: CP-55,940 as reference agonist. Here is the method: Mouse brains were dissected, and P2 membranes were prepared and resuspended at ∼10 μg protein/μL in 350 μL assay buffer containing 0.14% BSA. Ligand-stimulated [^35S]GTPγS binding was assayed as described in the SI. […]
utilizing [3H] C P -55,940 as the radioligand and crude membranes from humans for CB1 R or CB2 R. T he compounds were tested at various concentrations (eight points with a five-fold serial dilution starting at two m M) , and their ability to displace [3H] CP - 55, 940 was evaluated. Upon completion of the binding assays, the reaction mixture was filtered through GF/C plates, followed by four washes with cold wash buffer. After drying for one hour, 50 μL of Perkin Elmer Microscint 20 cocktail was added to the filter plate wells, and the bound [3H] C P -55,940 radioligand was measured using a β counter. All data points were duplicated, and Ki values were determined from two independent experiments using GraphPad Prism 7.02 analysis software, extracted through nonlinear regression analysis.
Tissue preparation for [ 35 S]GTPγS binding. […]
mM EGTA, 9 mM MgCl 2, and 150 mM NaCl, followed by homogenization. The protein concentration of the suspension was determined using the BCA assay, and the suspen sion was diluted to a final concentration of 2 mg/mL in assay buffer. […]
Supplementary Figure 1. […] The tested compounds were evaluated for their ability to inhibit CB1R-mediate d […]

The test system of series [1] is diet-induced obese C57Bl/6J mice. Put plainly: Chronic treatment of diet-induced obese (DIO) mice. Type of series: in vivo, mouse. The settings on record: vs vehicle. The method, then: To induce diet-induced obesity, the mice were fed a high-fat diet (HFD) containing 60% of calories from fat, 20% from protein, and 20% carbohydrates (Research Diet, D12492) for 16 weeks. HFD-fed obese mice were administered either vehicle or BNS808 (in SEDDs) orally at 1 mg/kg (dosing volume of 1 mL/kg) for 24 days. Daily monitoring of body weight was conducted throughout the experimental period. Total body fat and lean masses were assessed using the EchoMRI-100H (Echo Medical Systems LLC, Houston, TX, USA). At the end of week 20, mice were euthanized via cervical dislocation under anesthesia. Various tissues, including the kidneys, brain, liver, fat pads, and muscles, were harvested and snap-frozen or fixed in buffered 4% formalin. Trunk blood samples were collected for biochemical parameters analysis. […]

Series [2] can be described thus: Tissue distribution after acute oral administration. Type of series: in vivo, mouse. The settings on record: for Kp at 1 h: male, C57Bl/6J, mouse, in vivo, 1 mg/kg PO, 1 h post-acute administration. Here is the method:
Male C57Bl/6J mice aged 7–9 weeks (3–4 mice per compound) were fasted overnight before administering each test compound. The compounds were accurately weighed and mixed with an appropriate vehicle to prepare a clear oral solution. The formulations were freshly prepared on the dosing day, and the mice were administered the compound via oral gavage within 4 h of formulation preparation. 1, 2, 4, and 8 h after compound administration, the mice were euthanized, and approximately 200 μL of blood was collected via cardiac puncture for plasma preparation. Brain and liver tissues were harvested and processed for analysis. Sample analysis was performed using LC-MS/MS, as described in detail in the SI. […]
calculated using the equation:
Lucif er yellow = VV bbbbbbbbbbbbbbbbbbbb ×RR FFFF bbbbbbbbbbbbbbbbbbbb ×100 […]
Measurements of BNS808 using LC-MS/MS. MS/MS analyses were conducted using a Sciex QTRAP® 6500+ mass spectrometer (Framingham, MA, USA). Air was […]
Infinity 1031 nitrogen generator (Peak Scientific, Inchinnan, Scotland). Purified air […]
generator to ensure a continuous and stable air supply.

Series [3] in a line: Brain compound levels in the CNS side-effect study (Figure 2H). Type of series: in vivo. The settings on record: male, C57Bl/6J, mouse, in vivo; BNS808 PO (1 or 10 mg/kg, dose not stated), 1 h after administration. The method, then:
The ability of BNS808 and rimonabant (as a positive control) to induce centrally mediated hyperactivity in mice (A–C). Wild-type, male, C57Bl/6J mice received a single dose of rimonabant (10 mg/kg, PO), BNS808 (1 or 10 mg/kg, PO) or vehicle, and the Promethion High-Definition Behavioral Phenotyping System monitored the activity profile. In addition, the ability of BNS808 and rimonabant (as a positive control) to inhibit the hypomotility induced by a CB1R receptor agonist (HU210; 30 μg/kg, IP) was tested in wild-type, male, C57Bl/6J mice which received a single dose of rimonabant (10 mg/kg, PO) or BNS808 (1 or 10 mg/kg, PO) or vehicle (D–F). […] Data represent the mean ± SEM from 4 to 8 mice per group. *P < 0.05 vs Vehicle-treated control. ^#P < 0.05 vs rimonabant.

The record followed here is PMC12067444, “Synthesis and Pharmacological Characterization of Novel Peripheral Cannabinoid-1 Receptor Blockers Based on a Tricyclic Scaffold” (Journal of Medicinal Chemistry, 2025).

“Also recorded” adds a separate entry of the source. Read-outs that look alike come from different tables or passages of the source.

T1 sequence (P47746 whole entry): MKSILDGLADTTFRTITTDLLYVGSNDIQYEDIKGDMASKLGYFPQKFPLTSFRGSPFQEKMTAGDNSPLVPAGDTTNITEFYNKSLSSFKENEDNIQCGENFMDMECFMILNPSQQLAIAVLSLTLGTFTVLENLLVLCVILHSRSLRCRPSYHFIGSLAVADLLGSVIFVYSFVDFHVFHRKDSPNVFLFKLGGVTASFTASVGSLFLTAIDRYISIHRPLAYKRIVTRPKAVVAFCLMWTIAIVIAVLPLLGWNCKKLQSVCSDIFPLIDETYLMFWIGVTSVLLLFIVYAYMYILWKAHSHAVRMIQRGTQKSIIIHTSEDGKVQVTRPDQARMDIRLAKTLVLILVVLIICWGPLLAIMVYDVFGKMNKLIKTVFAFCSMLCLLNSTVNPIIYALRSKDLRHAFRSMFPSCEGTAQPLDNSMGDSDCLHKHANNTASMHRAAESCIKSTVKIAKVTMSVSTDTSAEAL

With `Cc1ccc(S(=O)(=O)NC2CCCOc3c2nn(-c2ccccc2Cl)c3-c2ccc(Cl)cc2)cc1` (stereo not shown) [BNS807], the “CB1R functional profile in GTPγS assay” value on CB1R is on record as “inverse agonistic profile; also recorded: inverse agonist”.
For the molecule `O=S(=O)(NC1CCCOc2c1nn(-c1ccccc1Cl)c2-c1ccc(Cl)cc1)c1ccc(Cl)cc1` (stereo not shown) [BNS808, 4-chloro-N-[2-(2-chlorophenyl)-3-(4-chlorophenyl)-5,6,7,8-tetrahydrooxepino[3,2-c]pyrazol-8-yl]benzenesulfonamide], the body weight entry in series [1] (1 mg/kg/day PO (in SEDDs) for 24 days) is “reduced body weight”. In series [1] (1 mg/kg/day PO for 24 days), the fasting blood glucose entry is “reduced the glucose levels in fasting conditions”, the “glucose homeostasis (ipGTT)” value is given as “trend toward substantial effects”, the “lean body mass (EchoMRI)” value is “significant increase in lean body mass” and the “total body fat (EchoMRI)” value is on record as “reduction in total body fat”. Besides, in series [1] (1 mg/kg/day for 24 days), the HDL levels entry was “without affecting HDL levels”; the HDL/LDL ratio entry was “increased HDL/LDL ratio”; the LDL levels result is on record as “reduced LDL levels”; the “hepatic steatosis and hepatocellular damage (histology)” value was “reversing hepatic steatosis and hepatocellular damage”. Also, in series [1] (1 mg/kg/day for 24 days), the “liver enzymes (ALT, AST, ALP)” value was “significant reduction”; the liver triglyceride content entry is reported as “significant reduction in liver triglyceride content”; the total cholesterol entry is given as “reduced total cholesterol”; the “triglycerides levels (serum)” value was “reduced”. The liver concentration in series [2] (1 mg/kg PO acute, time point not stated) is on record as ~200 ng/g. In series [2] (1 mg/kg PO single acute dose, lean C57Bl/6 mice, 1, 2, 4, 8 h), the “brain concentration, average over time points” value is given as 13.7 ng/g. The Kp at 1 h in series [2] (read-out: brain-to-plasma (B/P) ratio) turned out to be 0.18. Besides, in series [2] (read-out: liver/plasma (L/P) ratio), the Kp at 1 h was found to be 3.62. Besides, the concentration at 1 h in series [3] was determined as 13 ng/g.
